Reference: patent US7595320B2, “Hydrazinocarbonyl-thieno[2,3-C]pyrazoles, process for preparing them, compositions containing them and use thereof” (Aventis Pharma S.A., priority 2005, dated 2009)

What was measured:
Format in all cases: biochemical
Aurora1 = biological target: T1, Aurora1 (Homo sapiens, UniProt Q96GD4); test: Aurora1 enzymatic test, NuMA phosphorylation with [33P]ATP, Flashplate; conditions: Aurora-B/INCENP-C3 recombinant complex, 1 μM ATP
T1 construct: His tag (N); made in house
Procedure: (§1) The inhibitory effect of compounds with respect to the kinases Aurora1 and Aurora2 is determined by means of an enzymatic test using radioactivity detection.
(§2) The kinase activity of Aurora1 and Aurora2 is evaluated via the phosphorylation of the substrate Numa-histidine in the presence of radiolabelled ATP ([^33P]ATP) using 96-well Flashplate plates in which the nickel chelate is bound to the surface of the microplate. The amount of ^33P phosphate incorporated into the NuMA substrate is proportional to the activity of the enzyme Aurora1 or Aurora2.
Aurora1: Aurora-B/INCENP-C3 recombinant complex, purified to about 50%, the N-terminal end of Aurora-B of which has been labeled with histidine.
(§3) NuMA (nuclear protein that combines with the mitotic apparatus): 424-amino acid fragment, expressed in E. coli, the N-terminal end of which has been labeled with histidine, and used as substrate for the two Aurora enzymes.
(§4) The microplates used are 96-well Flash-Plate plates, nickel chelate (Perkin-Elmer, model SMP107).
(§5) The products to be evaluated are incubated in a reaction volume of 100 μL per well, in the presence of 10 nM of Aurora1 or Aurora2, 500 nM of NuMA substrate in a buffer composed of 50 mM Tris/HCl (pH 7.5), 50 mM NaCl, 5 mM MgCl2 (Aurora-B) or 10 mM MgCl2 (Aurora-A) and 1 mM DTT, at 37° C.
(§6) 80 μL of enzyme/substrate incubation buffer are distributed in each well, followed by 10 μL of product to be evaluated, at variable concentrations. The reaction is initiated by adding 1 μM final of ATP containing 0.2 μCi of [^33P]ATP (10 μL). After incubating for 30 minutes, the reaction is quenched by simple removal of the reaction buffer and each well is washed twice with 300 μl of Tris/HCl buffer. The radioactivity is then measured in each well using a Packard, Top-Count model scintillation machine.
(§7) The control enzymatic activity of Aurora is expressed by the number of counts per minute obtained over 30 minutes after subtracting the background noise (reaction mixture containing no enzyme). The evaluation of the various test products is expressed as a percentage of inhibition of the Aurora activity relative to the control.

Aurora2 = biological target: T2, Aurora2 (Homo sapiens, UniProt O14965); test: Aurora2 enzymatic test, NuMA phosphorylation with [33P]ATP, Flashplate; conditions: whole recombinant protein, 1 μM ATP
T2 construct: Aurora2: whole recombinant protein comprising an N-terminal histidine tail; His tag (N); made in house; host or cells: E. coli
T2 sequence (O14965 1-403): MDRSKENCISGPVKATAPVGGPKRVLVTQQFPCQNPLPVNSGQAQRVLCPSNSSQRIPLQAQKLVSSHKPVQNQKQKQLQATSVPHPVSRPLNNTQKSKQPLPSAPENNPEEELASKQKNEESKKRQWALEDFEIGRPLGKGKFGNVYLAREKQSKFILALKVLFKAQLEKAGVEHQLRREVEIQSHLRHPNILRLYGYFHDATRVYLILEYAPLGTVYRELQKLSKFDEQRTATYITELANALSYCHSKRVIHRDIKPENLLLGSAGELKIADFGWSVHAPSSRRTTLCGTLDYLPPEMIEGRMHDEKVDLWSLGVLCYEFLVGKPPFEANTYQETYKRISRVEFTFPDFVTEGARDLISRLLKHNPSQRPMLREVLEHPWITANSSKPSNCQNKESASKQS
Procedure: as §1, §2
Aurora2: whole recombinant protein comprising an N-terminal histidine tail, was expressed in E. coli and purified to more than 82%.
as §3, §4, §5, §6, §7

CDK2/cycline E = biological target: T3, CDK2/cycline E (Homo sapiens, UniProt P24941); test: CDK2/cyclineE Flashplate test in 96-well format; conditions: CDK2/cycline E complex, 1 μM ATP
T3 construct: made in house; host or cells: Sf21 insect cells (baculovirus coinfection)
Procedure: Two recombinant baculoviruses bearing the human sequences coding, respectively, for CDK2 and cyclineE (the latter bearing a C-terminal hexahistidine tag) are used to coinfect Sf21 insect cells. Two to three days after the start of coinfection, the cells are harvested by centrifugation and then stored at −40° C. until the time of use.
A format in streptavidin-coated 96-well plates is used to test the activity of the compounds on the kinase activity of CDK2/cycline E.
To perform this test, the biotinylated peptide substrate, a fragment of the protein pRb (biotinyl-[…]-OH), is dissolved at a concentration of 1 mM in kinase buffer (HEPES/NaOH 50 mM, NaCl 1 mM, MgCl2 5 mM, pH 7.5) in order to constitute a stock solution stored at −20° C. in the form of 110 μL aliquots. On the day of the experiment, an aliquot of this solution is thawed and diluted in kinase buffer containing 1 mM of dithiothreitol, added to the buffer extemporaneously, in order to obtain a concentration of 14.3 μM. 70 μL of this solution are added to each well of the Flashplate in order to obtain a final substrate concentration of 10 μM during the enzymatic reaction performed in a final volume of the reaction medium of 100 μL (cf. below).
Intermediate dilutions of inhibitors (products of the invention) at various concentrations are prepared in DMSO from stock solutions at 10 mM in separate tubes. Dilutions at 1000 μM, 333.3 μM, 111.1 μM, 37.03 μM, 12.35 μM, 4.11 μM and 1.37 μM are thus prepared. One μL of each of these solutions (or 1 μL of DMSO for the controls) is transferred into the wells of the test plate.
19 μl of a solution of a mixture of adenosine triphosphate (ATP) and of ATPγ^33P in kinase buffer at a total concentration of 5.26 μM of ATP and 52.6 μCi/ml of ^33P are then added to each well. The enzymatic reaction is initiated by adding 10 μL per well of a 200 nM solution of CDK2/cycline E in kinase buffer containing 1 mM of dithiothreitol (or 10 μL of kinase buffer containing 1 mM of dithiothreitol for the reaction blanks).
After addition of each of the reagents, the final volume of each well is 100 μL, the final concentration of substrate is 10 μM, the final inhibitor concentrations are 10 μM, 3.33 μM, 1.11 μM, 0.37 μM, 0.123 μM, 0.041 μM and 0.014 μM (according to the concentration of the intermediate dilution), the final ATP concentration is 1 μM, the final amount of ^33P is 1 μCi/well, and the final concentration of CDK2/cycline E complex is 20 nM.
After addition of all of the reagents, the test plate is incubated at 30° C. with orbital shaking at 650 rpm.
When the incubation is complete, the plate is washed three times with 300 μL per well of PBS (phosphate-buffered saline, pH=7.4, without calcium or magnesium, reference 10010-015, Gibco BRL). The incorporation of ^33P to the peptide is quantified by scintillation counting with a Packard Topcount.NXT machine.

Tie2 = biological target: T4, Tie2 (Homo sapiens, UniProt Q02763); test: Tie2 kinase test, phosphorylation of PLC with GST-Tie2; conditions: GST-Tie2 intracellular domain 776-1124
T4 construct: amino acids of the intracellular domain 776-1124; made in house; host or cells: baculovirus expression (pFastBacGT vector)
Procedure: The coding sequence of human Tie2 corresponding to the amino acids of the intracellular domain 776-1124 was generated by PCR using the cDNA isolated from a human placenta as a model. This sequence was introduced into a pFastBacGT baculovirus expression vector in the form of a GST fusion protein.
The inhibitory effect of the molecules is determined in a test of phosphorylation of PLC with Tie2 in the presence of GST-Tie2 purified to about 80% homogeneity. The substrate is composed of the SH2-SH3 fragments of PLC expressed in the form of a GST fusion protein.
The kinase activity of Tie2 is measured in a MOPS 20 mM pH 7.2 buffer, containing 10 mM MgCl2, 10 mM MnCl2, 1 mM DTT, 10 mM of glycerophosphate. In a 96-well FlashPlate plate maintained on ice, a reaction mixture is deposited, composed of 70 μL of kinase buffer containing 100 ng of enzyme GST-Tie2 per well. Next, 10 μL of the test molecule diluted in DMSO to a maximum concentration of 10% are added. For a given concentration, each measurement is performed four times. The reaction is initiated by adding 20 μL of solution containing 2 μg of GST-PLC, 2 μm of cold ATP and 1 μCi of ^33P[ATP]. After incubation for one hour at 37° C., the reaction is stopped by adding 1 volume (100 μl) of 200 mM EDTA. After removal of the incubation buffer, the wells are washed three times with 300 μL of PBS. The radioactivity is measured on a MicroBeta1450 Wallac.
The inhibition of the Tie2 activity is calculated and expressed as a percentage of inhibition relative to the control activity determined in the absence of compound.

T4 sequence (Q02763 776-1124): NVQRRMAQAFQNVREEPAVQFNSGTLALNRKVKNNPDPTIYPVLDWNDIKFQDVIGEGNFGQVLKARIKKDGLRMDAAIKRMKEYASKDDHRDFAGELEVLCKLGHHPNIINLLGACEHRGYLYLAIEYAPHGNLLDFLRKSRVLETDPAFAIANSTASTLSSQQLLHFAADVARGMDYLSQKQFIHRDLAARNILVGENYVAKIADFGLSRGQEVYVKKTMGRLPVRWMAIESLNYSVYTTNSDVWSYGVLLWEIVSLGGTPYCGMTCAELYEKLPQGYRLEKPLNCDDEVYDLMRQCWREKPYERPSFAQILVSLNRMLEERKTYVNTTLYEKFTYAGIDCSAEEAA
T1 sequence (Q96GD4 whole entry, species assumed): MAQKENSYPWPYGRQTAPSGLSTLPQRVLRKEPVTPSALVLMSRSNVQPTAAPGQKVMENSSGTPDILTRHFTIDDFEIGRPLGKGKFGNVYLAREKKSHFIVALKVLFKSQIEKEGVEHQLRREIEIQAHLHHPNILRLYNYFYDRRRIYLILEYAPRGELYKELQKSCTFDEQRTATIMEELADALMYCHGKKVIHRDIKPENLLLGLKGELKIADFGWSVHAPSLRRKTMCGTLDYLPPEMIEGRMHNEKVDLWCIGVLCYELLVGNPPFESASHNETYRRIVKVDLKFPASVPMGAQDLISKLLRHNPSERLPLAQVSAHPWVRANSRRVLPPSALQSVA
T1 sequence (Q9NQS7 835-903 partner limits assumed, species assumed): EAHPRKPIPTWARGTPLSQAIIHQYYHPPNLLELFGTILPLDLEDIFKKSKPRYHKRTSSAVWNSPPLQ

Row | SMILES | IC50 (Aurora1) [nM] | IC50 (Aurora2) [nM] | IC50 (CDK2/cycline E) [nM] | IC50 (Tie2) [nM]
1 | COc1ccc(C(=O)Nc2n[nH]c3sc(C(=O)NNC4CCCCC4)cc23)cc1 [Example 3, N-[5-(N′-cyclohexylhydrazinocarbonyl)-1H-thieno-[2,3-c]pyrazol-3-yl]-4-methoxybenzamide] | 31 | 45 | 471 | 192
2 | CCc1ccccc1NNC(=O)c1cc2c(NC(=O)c3ccc(OC)cc3)n[nH]c2s1 [Example 5, N-{5-[N′-(2-ethylphenyl)hydrazinocarbonyl]-1H-thieno[2,3-c]pyrazol-3-yl}-4-methoxybenzamide] | 33 | 28 | 664 | 75
3 | COc1ccc(C(=O)Nc2n[nH]c3sc(C(=O)NNc4ccccc4F)cc23)cc1 [Example 6, N-{5-[N′-(2-fluorophenyl)hydrazinocarbonyl]-1H-thieno[2,3-c]pyrazol-3-yl}-4-methoxybenzamide] | 14 | 20 | 579 | 230
4 | COc1ccc(C(=O)Nc2n[nH]c3sc(C(=O)NNc4ccccc4C)cc23)cc1 [Example 7, 4-methoxy-N-[5-(N′-o-tolylhydrazinocarbonyl)-1H-thieno[2,3-c]pyrazol-3-yl]benzamide] | 16 | 17 | 428 | 186
5 | CN1CCN(Cc2ccc(C(=O)Nc3n[nH]c4sc(C(=O)NN(C)c5ccccc5)cc34)cc2)CC1 [Example 10, N-[5-(N′-methyl-N′-phenylhydrazinocarbonyl)-1H-thieno[2,3-c]pyrazol-3-yl]-4-(4-methylpiperazin-1-ylmethyl)benzamide] | 102 | 46 | 92 | 367
6 | CC1CN(Cc2ccc(C(=O)Nc3n[nH]c4sc(C(=O)NN(C)c5ccccc5)cc34)cc2)CC(C)N1 (stereo not shown) [Example 11a, 4-(3,5-dimethylpiperazin-1-ylmethyl)-N-[5-(N′-methyl-N′-phenylhydrazinocarbonyl)-1H-thieno[2,3-c]pyrazol-3-yl]benzamide] | 178 | 31 | 156 | 520
7 | CC1CN(Cc2ccc(C(=O)Nc3n[nH]c4sc(C(=O)NN(C)c5ccc(Cl)cc5)cc34)cc2)CC(C)N1 (stereo not shown) [Example 11b, 4-(3,5-dimethylpiperazin-1-ylmethyl)-N-[5-(N′-(4-chlorophenyl)-N′-methylhydrazinocarbonyl)-1H-thieno[2,3-c]pyrazol-3-yl]-benzamide] | 216 | 73 | 77 | 704
8 | CCN(NC(=O)c1cc2c(NC(=O)c3ccc(N4CCN(C)CC4)cc3)n[nH]c2s1)c1ccccc1 [Example 33, N-[5-(N′-ethyl-N′-phenylhydrazinocarbonyl)-1H-thieno[2,3-c]pyrazol-3-yl]-4-(4-methylpiperazin-1-yl)benzamide] | 13 |  | 100 | 8

Now those with a lower IC50 (Aurora1), led by results:

Row | IC50 (Aurora1) [nM] | IC50 (Aurora2) [nM] | IC50 (CDK2/cycline E) [nM] | IC50 (Tie2) [nM] | SMILES
9 | 8 | 8 | 177 | 117 | COc1ccc(C(=O)Nc2n[nH]c3sc(C(=O)NNc4ccccc4)cc23)cc1 [Example 1]
10 | 9 | 9 | 97 | 92 | COc1ccc(C(=O)Nc2n[nH]c3sc(C(=O)NN(C)c4ccccc4)cc23)cc1 [Example 2]
11 | 6 | 28 | 508 | 115 | COc1ccc(C(=O)Nc2n[nH]c3sc(C(=O)NN(Cc4ccccc4)c4ccccc4)cc23)cc1 [Example 4, N-[5-(N′-benzyl-N′-phenylhydrazinocarbonyl)-1H-thieno[2,3-c]pyrazol-3-yl]-4-methoxybenzamide]
12 | 8 |  | 289 | 75 | CN1CCCN(c2ccc(C(=O)Nc3n[nH]c4sc(C(=O)NN(C)c5ccccc5)cc34)cc2)CC1 [Example 47, 4-(4-methyl[1,4]diazepan-1-yl)-N-[5-(N′-methyl-N′-phenylhydrazinocarbonyl)-1H-thieno[2,3-c]pyrazol-3-yl]benzamide]
